Results from patent publication US4426382A, “4-Amino-6,7-dimethoxy-2-piperazinylquinazoline derivatives, their preparation and use” (Sankyo Company Limited, priority 1980, dated 1984).
Counter-ions that a name gives are not always drawn.

Test system: spontaneously hypertensive rats
Experiment: antihypertensive activity: blood pressure after oral administration to conscious spontaneously hypertensive rats
Assay type: in vivo
Conditions: male spontaneously hypertensive rats
Experimental: The animals used in this test were 15 week old male spontaneously hypertensive rats. 3-5 rats were used to test each concentration of each compound. Each animal was treated as follows. […] A polyethylene cannula was then inserted into the abdominal aorta by the method of Weeks and Jones [J. R. Weeks and J. A. Jones, Proc. Soc. […] The other end of the cannula, leading out of the body, was fixed to the neck. One week after the operation, when the animal had recovered from post-operative invasion, this end of the cannula was connected to an apparatus to measure the blood pressure and heart beat directly without the need for any further anesthesia or restraint. The haemomanometer used was an improved type of that originated by Laffan et al. [P. J. Laffan, A. Peterson, S. W. Hitch and C.
The compound under test was suspended at the desired concentration in a 0.3% w/v aqueous solution of carboxymethylcellulose and administered orally in a volume of 2 ml/kg body weight. […] After administration of the sample, the blood pressure and heart beat of each animal were measured for 24 hours at 15 minute intervals.
For purposes of comparison, the same experiment was carried out with various concentrations of the known hypotensive agent, prazosin, in the form of its hydrochloride.
Δmax =Maximum change in blood pressure (mm/Hg) after administration of the compound under test;
Tmax =Time (in hours) after administration of the compound under test required for the blood pressure to obtain a maximum change;
T0.5 max =Time (in hours) after administration of the compound under test for the blood pressure to return to one-half of its maximum value.

Structure (SMILES) | T0.5 max, time after administration for the blood pressure to return to one-half of its maximum value (dose 3 mg/kg oral) [h] | Tmax, time after administration required for the blood pressure to obtain a maximum change (dose 3 mg/kg oral) [h] | Δmax, maximum change in blood pressure after administration (dose 3 mg/kg oral) [mmHg] | T0.5 max, time after administration for the blood pressure to return to one-half of its maximum value (dose 30 mg/kg oral) [h] | Tmax, time after administration required for the blood pressure to obtain a maximum change (dose 30 mg/kg oral) [h] | Δmax, maximum change in blood pressure after administration (dose 30 mg/kg oral) [mmHg] | T0.5 max, time after administration for the blood pressure to return to one-half of its maximum value (dose 10 mg/kg oral) [h] | Tmax, time after administration required for the blood pressure to obtain a maximum change (dose 10 mg/kg oral) [h] | Δmax, maximum change in blood pressure after administration (dose 10 mg/kg oral) [mmHg]
COc1cc2nc(N3CCN(C(=O)Cc4ccccc4)CC3)nc(N)c2cc1OC [28 hydrochloride hydrate] | 9 | 1 | -30 | 10 | 4 | -50 |  |  | 
COc1cc2nc(N3CCN(C(=O)CCc4ccccc4)CC3)nc(N)c2cc1OC [29 hydrochloride hydrate] | 8 | 2 | -30 | 12 | 5 | -45 |  |  | 
COc1cc2nc(N3CCN(C(=O)C=C4CCCCC4)CC3)nc(N)c2cc1OC [31 hydrochloride hydrate] | 10 | 1 to 2 | -25 | 14 | 1 to 2 | -40 |  |  | 
COc1cc2nc(N3CCN(C(=O)C=C4CCCC4)CC3)nc(N)c2cc1OC [32 hydrochloride hydrate] | 10 | 1 to 2 | -40 | 7 | 1 to 2 | -80 |  |  | 
COc1cc2nc(N3CCN(C(=O)C4(c5ccccc5)CC4)CC3)nc(N)c2cc1OC [33 hydrochloride hydrate] |  |  |  | 8.5 | 1 | -50 |  |  | 
COc1cc2nc(N3CCN(C(=O)c4ccc(OCc5ccccc5)c(OC)c4)CC3)nc(N)c2cc1OC [94 hydrochloride hemihydrate] |  |  |  | 7 | 5 | -28 |  |  | 
COc1cc2nc(N3CCN(C(=O)c4ccc(OCc5ccccc5)c(Cl)c4)CC3)nc(N)c2cc1OC [98 hydrochloride hemihydrate] |  |  |  | 8 | 4 | -30 |  |  | 
COc1cc2nc(N3CCN(C(=O)c4ccc(OC(C)c5ccccc5)cc4)CC3)nc(N)c2cc1OC (stereo not drawn) [103 hydrochloride sesquihydrate] |  |  |  | 13 | 5 to 6 | -41 | 9.5 | 5 to 6 | -30
C=C(C)C(=O)N1CCN(c2nc(N)c3cc(OC)c(OC)cc3n2)CC1 [Compound No. 2, 4-Amino-6,7-dimethoxy-2-[4-(2-methylacryloyl)-1-piperazinyl]quinazoline] | 3.5 | 0.75 | -25 | 9 | 0.5 | -35 |  |  | 
